Test results published in ChEMBL document CHEMBL1126296, “Orally active aldose reductase inhibitors: indazoleacetic, oxopyridazineacetic, and oxopyridopyridazineacetic acid derivatives” (J Med Chem, 1992).
Calls of active or inactive are those of the source. No cut-off for these calls is given here.

What was measured:
[1] = target: Aldo-keto reductase family 1 member B1 (Homo sapiens, UniProt P15121); experiment: Inhibitory activity against aldose reductase isolated from human placenta
Rattus norvegicus [2] = experiment: In vivo inhibition of sorbitol accumulation in sciatic nerve and lens of diabetic rat at a dose of 25 mg/kg; NS=not significant; format: functional, organism-based; design: dose 25 mg/kg
Rattus norvegicus [3] = experiment: In vivo inhibition of sorbitol accumulation in sciatic nerve and lens of diabetic rat at a dose of 25 mg/kg.; format: functional
Rattus norvegicus [4] = experiment: In vivo inhibition of sorbitol accumulation in sciatic nerve and lens of diabetic rat at a dose of 10 mg/kg.; format: functional
Rattus norvegicus [5] = experiment: In vivo inhibition of sorbitol accumulation in sciatic nerve and lens of diabetic rat at a dose of 100 mg/kg.; format: functional
Rattus norvegicus [6] = experiment: In vivo inhibition of sorbitol accumulation in sciatic nerve and lens of diabetic rat at a dose of 10 mg/kg; NS=not significant; format: functional, organism-based; design: dose 10 mg/kg

| IC50 [1] | SMILES | inhibition in vivo at 25 mg/kg (Rattus norvegicus [3]) | also measured |
| --- | --- | --- | --- |
| 35 nM | O=C(O)Cc1nn(Cc2nc3cc(C(F)(F)F)ccc3s2)c2ccc(Cl)cc12 | – | inhibition (Rattus norvegicus [2]): inactive |
| < 10 nM | O=C(O)Cc1nn(Cc2nc3cc(F)ccc3s2)c(=O)c2cccnc12 | 64% | – |
| 16 nM | Cc1c(CC(=O)O)nn(Cc2nc3cc(C(F)(F)F)ccc3s2)c(=O)c1C | 81% | – |
| 26 nM | O=C(O)Cc1nn(Cc2nc3cc(F)cc(F)c3s2)c(=O)c2cccnc12 | 68% | – |
| 340 nM | O=C(O)Cc1ccc(=O)n(Cc2nc3cc(C(F)(F)F)ccc3s2)n1 | – | inhibition (Rattus norvegicus [2]): inactive |
| 65 nM | O=C(O)Cc1nn(Cc2nc3cc(Br)ccc3s2)c2ccc(Cl)cc12 | 56% | – |
| 4 nM | O=C(O)Cc1nn(Cc2nc3cc(F)cc(F)c3s2)c(=O)c2c1CCCC2 | – | – |
| 18 nM | Cc1cc(=O)n(Cc2nc3cc(C(F)(F)F)ccc3s2)nc1CC(=O)O | – | inhibition (Rattus norvegicus [2]): inactive |
| 110 nM | O=C(O)Cc1nn(Cc2nc3cc(F)cc(F)c3s2)c2ccc(Cl)cc12 | 69% | – |
| 4.6 nM | O=C(O)Cc1nn(Cc2nc3cc(F)ccc3s2)c2ccc(Cl)cc12 | 34% | – |
| 5.2 nM | O=C(O)Cc1nn(Cc2nc3cc(C(F)(F)F)ccc3s2)c(=O)c2c1CCCC2 | 89% | inhibition in vivo at 10 mg/kg (Rattus norvegicus [4]): 61% |
| 41 nM | O=C(O)Cc1nn(Cc2nc3cc(C(F)(F)F)ccc3s2)c(=O)c2cccnc12 | 74% | – |
| 760 nM | O=C(O)Cc1nn(Cc2ccc(Br)cc2F)c(=O)c2ncccc12 | – | inhibition (Rattus norvegicus [2]): inactive |
| < 10 nM | O=C(O)Cc1ccc(=O)n(Cc2nc3cc(F)cc(F)c3s2)n1 | 32% | – |
| 100 nM | O=C(O)Cc1nn(Cc2nc3ccccc3o2)c2ccc(Cl)cc12 | – | – |
| 420 nM | O=C(O)Cc1nn(Cc2ccc(Br)cc2F)c(=O)c2cc3ccccc3cc12 | – | – |
| 46 nM | O=C(O)Cc1nn(Cc2nc3ccccc3s2)c(=O)c2cc3ccccc3cc12 | – | inhibition in vivo at 100 mg/kg (Rattus norvegicus [5]): 48% |
| 3.3 nM | Cc1c(CC(=O)O)nn(Cc2nc(-c3cccc(F)c3F)no2)c(=O)c1C | – | inhibition in vivo at 10 mg/kg (Rattus norvegicus [4]): 26% |
| 680 nM | O=C(O)Cc1nn(Cc2nc3ccccc3s2)c2ccccc12 | 52% | inhibition in vivo at 100 mg/kg (Rattus norvegicus [5]): 77% |
| 290 nM | Cc1c(CC(=O)O)nn(Cc2ccc(Br)cc2F)c(=O)c1C | – | inhibition (Rattus norvegicus [6]): inactive |
| 33 nM | O=C(O)Cc1nn(Cc2nc3cc(C(F)(F)F)ccc3s2)c2ccccc12 | 59% | – |
| 30 nM | O=C(O)Cc1nn(Cc2nc3cc(F)cc(F)c3s2)c2ccccc12 | 61% | – |
| 58 nM | O=C(O)Cc1nn(Cc2nc3ccccc3s2)c2ccc(Cl)cc12 | – | inhibition (Rattus norvegicus [6]): inactive |
| 6200 nM | O=C(O)Cc1nn(Cc2ccc(Br)cc2F)c2ccccc12 | – | – |
| – | O=C(O)Cc1nn(Cc2nc3ccccc3s2)c(=O)c2ccccc12 | 67% | – |
| 32 nM | O=C(O)Cc1nn(Cc2ccc(Br)cc2F)c(=O)c2c1CCCC2 | 87% | – |
| – | O=C(O)Cc1nn(Cc2nc3cc(C(F)(F)F)ccc3s2)c(=O)c2ccccc12 [ZOPOLRESTAT] | – | inhibition in vivo at 10 mg/kg (Rattus norvegicus [4]): 80% |
| 5 nM | Cc1c(CC(=O)O)nn(Cc2nc3cc(F)cc(F)c3s2)c(=O)c1C | – | inhibition in vivo at 10 mg/kg (Rattus norvegicus [4]): 76% |
| 2.1 nM | O=C(O)Cc1nn(Cc2nc3cc(C(F)(F)F)ccc3s2)c(=O)c2ncccc12 | – | inhibition (Rattus norvegicus [6]): inactive |
